Test results published in patent publication US6475502B1, “Kits containing cyanoacrylate compositions comprising an antimicrobial agent” (Flowers Park Ltd., priority 1997, dated 2002).
Counter-ions that a name gives are not always drawn. Like-named read-outs stand apart in the source and are kept apart here.

How the values were obtained:
[1] = Solubility or suspendability of the antimicrobial agent in the n-butyl cyanoacrylate composition
[2] = Premature polymerization (gel formation) of the cyanoacrylate composition after mixing with the antimicrobial agent; format: physicochemical; settings: for Period over which the composition polymerized after mixing: 5 weight percent agent based on total weight of composition; for Compatibility with the cyanoacrylate composition: overall conclusion of Example 1, for tetracycline hydrochloride and hexachlorophene when mixed immediately prior to use

SMILES	Soluble ([1]; in monomeric n-butyl cyanoacrylate with 100 ppm sulfur dioxide and 20 weight percent dioctyl phthalate, agent conc. per column Conc. (~20% iodine, 10% PVP-I2, 5% others))	Soluble [1]	Period over which the composition polymerized after mixing [2] [h]	Compatibility with the cyanoacrylate composition [2]
O=C([O-])c1ccccc1-c1c2cc(Br)c(=O)cc-2oc2[c]([Hg+])c([O-])c(Br)cc12.[Na+].[Na+].[OH-] [Merbromin, merbromin]	no, gelled^1	–	–	–
II [elemental iodine (I2), elemental iodine]	–	partially	–	–
CN(C)[C@@H]1C(O)=C(C(N)=O)C(=O)[C@@]2(O)C(O)=C3C(=O)c4c(O)cccc4[C@@](C)(O)[C@H]3C[C@@H]12 [tetracycline hydrochloride]	–	–	~48	compatible
CC[C@H]1OC(=O)[C@H](C)[C@@H](O[C@H]2C[C@@](C)(OC)[C@@H](O)[C@H](C)O2)[C@H](C)[C@@H](O[C@@H]2O[C@H](C)C[C@H](N(C)C)[C@H]2O)[C@](C)(O)C[C@@H](C)C(=O)[C@H](C)[C@@H](O)[C@]1(C)O [Erythromycin, erythromycin]	–	no, gelled^1	–	–
Oc1c(Cl)cc(Cl)c(Cl)c1Cc1c(O)c(Cl)cc(Cl)c1Cl [hexachlorophene]	–	–	~48	compatible
